# Measurements: patent US20230040770A1, “HETEROCYCLIC COMPOUND AND USE THEREOF” (TAKEDA PHARMACEUTICAL COMPANY LIMITED, priority 2019, published 2023)
# Target: T1, human orexin type 2 receptor (Homo sapiens, UniProt O43614)
# T1 construct: expressed in transfected cells
# T1 sequence (O43614 1-444): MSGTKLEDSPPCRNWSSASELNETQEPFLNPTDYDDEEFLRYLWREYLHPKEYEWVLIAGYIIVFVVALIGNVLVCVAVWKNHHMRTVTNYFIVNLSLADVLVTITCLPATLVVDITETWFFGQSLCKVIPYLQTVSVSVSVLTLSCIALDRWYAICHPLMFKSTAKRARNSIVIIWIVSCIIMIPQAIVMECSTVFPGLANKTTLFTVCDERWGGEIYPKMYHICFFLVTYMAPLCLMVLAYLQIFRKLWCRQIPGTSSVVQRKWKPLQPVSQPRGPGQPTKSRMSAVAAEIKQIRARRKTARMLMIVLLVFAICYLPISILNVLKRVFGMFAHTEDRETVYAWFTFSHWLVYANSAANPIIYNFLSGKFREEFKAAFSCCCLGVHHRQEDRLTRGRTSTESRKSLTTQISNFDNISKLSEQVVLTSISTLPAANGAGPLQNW
# Assay: Measurement of orexin type 2 receptor agonist activity (calcium indicator fluorescence, CHO cells forcibly expressing human OX2 receptor)
# Assay type: cell-based
# Details: compound at 3 μM; 0% = DMSO, 100% = orexin A (human) 10 nM
# In short: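 CHO-dhfr cells stably expressing human OX2R, loaded with Fluo-4 AM (30 min 37 °C, then 30 min RT), then given test compound. Calcium fluorescence read by FDSS over ~2 min. Activity (%) scaled from DMSO (0%) to 10 nM final orexin A (100%).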
row,"OX2R agonist activity (3 μM, %) [%]",Structure (SMILES)
1,85,"CCS(=O)(=O)N[C@@H]1[C@H](Cc2cccc(-c3cccc(C(F)F)c3)c2F)N(C(=O)C23CC(C2)C3)CC1(F)F [Example 509, N-[(2S,3R)-1-(bicyclo[1.1.1]pentane-1-carbonyl)-2-{[3′-(difluoromethyl)-2-fluoro[1,1′-biphenyl]-3-yl]methyl}-4,4-difluoropyrrolidin-3-yl]ethanesulfonamide]"
2,95,"O=C(C1CC1)N1C[C@H](F)[C@H](NS(=O)(=O)C2CC2)[C@@H]1Cc1cccc(-c2cccc(F)c2F)c1F [Example 377, N-{(2S,3R,4S)-1-(cyclopropanecarbonyl)-4-fluoro-2-[(2,2′,3′-trifluoro[1,1′-biphenyl]-3-yl)methyl]pyrrolidin-3-yl}cyclopropanesulfonamide]"
3,83,"CS(=O)(=O)N[C@@H]1[C@H](Cc2cccc(-c3cc(F)cc(Cl)c3)c2F)N(C(=O)C2CCO2)CC1(F)F (stereo partly drawn) [Example 266, N-[(2S,3R)-2-[(3′-chloro-2,5′-difluoro[1,1′-biphenyl]-3-yl)methyl]-4,4-difluoro-1-(oxetane-2-carbonyl)pyrrolidin-3-yl]methanesulfonamide]"
4,88,"CCS(=O)(=O)N[C@H]1[C@@H](F)CN(C(=O)C(C)(C)O)[C@H]1Cc1cccc(-c2cccc(F)c2)c1F [Example 207, N-[(2S,3R,4S)-2-[(2,3′-difluoro[1,1′-biphenyl]-3-yl)methyl]-4-fluoro-1-(2-hydroxy-2-methylpropanoyl)pyrrolidin-3-yl]ethanesulfonamide]"
5,102,"CCS(=O)(=O)N[C@@H]1[C@H](Cc2cccc(-c3ccccc3)c2F)N(C(=O)C2CCO2)CC1(F)F (stereo partly drawn) [Example 46, N-[(2S,3R)-4,4-difluoro-2-[(2-fluoro[1,1′-biphenyl]-3-yl)methyl]-1-(oxetane-2-carbonyl)pyrrolidin-3-yl]ethanesulfonamide]"
6,94,"CCS(=O)(=O)N[C@@H]1[C@H](Cc2cccc(-c3cccc(F)c3)c2F)N(C(=O)N2CCC2)CC1(F)F [Example 287, N-{(2S,3R)-1-(azetidine-1-carbonyl)-2-[(2,3′-difluoro[1,1′-biphenyl]-3-yl)methyl]-4,4-difluoropyrrolidin-3-yl}ethanesulfonamide]"
7,94,"CCS(=O)(=O)N[C@@H]1[C@H](Cc2cccc(-c3ccc(F)c(F)c3F)c2F)N(C(=O)C2CCO2)CC1(F)F (stereo partly drawn) [Example 471, N-{(2S,3R)-4,4-difluoro-1-(oxetane-2-carbonyl)-2-[(2,2′,3′,4′-tetrafluoro[1,1′-biphenyl]-3-yl)methyl]pyrrolidin-3-yl}ethanesulfonamide]"
8,95,"Cc1cccc(-c2cccc(C[C@H]3[C@@H](NS(=O)(=O)C4CC4)C(F)(F)CN3C(=O)N3CCC3)c2F)c1F [Example 527, N-{(2S,3R)-1-(azetidine-1-carbonyl)-2-[(2,2′-difluoro-3′-methyl[1,1′-biphenyl]-3-yl)methyl]-4,4-difluoropyrrolidin-3-yl}cyclopropanesulfonamide]"
9,98,"CCS(=O)(=O)N[C@@H]1[C@H](Cc2cccc(-c3cccc(C)c3)c2F)N(C(=O)N2CCC2)CC1(F)F [Example 285, N-{(2S,3R)-1-(azetidine-1-carbonyl)-4,4-difluoro-2-[(2-fluoro-3′-methyl[1,1′-biphenyl]-3-yl)methyl]pyrrolidin-3-yl}ethanesulfonamdie]"
10,100,"CCS(=O)(=O)N[C@@H]1[C@H](Cc2cccc(-c3ccccc3)c2F)N(C(=O)C2(O)CCC2)CC1(F)F [Example 23, N-[(2S,3R)-4,4-difluoro-2-[(2-fluoro[1,1′-biphenyl]-3-yl)methyl]-1-(1-hydroxycyclobutane-1-carbonyl)pyrrolidin-3-yl]ethanesulfonamide]"
11,84,"CS(=O)(=O)N[C@@H]1[C@H](Cc2cccc(-c3cc(F)ccc3F)c2F)N(C(=O)C2CC(F)C2)CC1(F)F (stereo partly drawn) [Example 437, N-{(2S,3R)-4,4-difluoro-1-(3-fluorocyclobutane-1-carbonyl)-2-[(2,2′,5′-trifluoro[1,1′-biphenyl]-3-yl)methyl]pyrrolidin-3-yl}methanesulfonamide]"
12,95,"CS(=O)(=O)N[C@@H]1[C@H](Cc2cccc(-c3cccc(F)c3)c2F)N(C(=O)[C@H]2CCO2)CC1(F)F [Example 81, N-[(2S,3R)-2-[(2,3′-difluoro[1,1′-biphenyl]-3-yl)methyl]-4,4-difluoro-1-((2R)-oxetane-2-carbonyl)pyrrolidin-3-yl]methanesulfonamide]"
13,88,"O=C(C1CC1)N1C[C@H](F)[C@H](NS(=O)(=O)C2CC2)[C@@H]1Cc1cccc(-c2cc(F)cc(F)c2)c1F [Example 373, N-{(2S,3R,4S)-1-(cyclopropanecarbonyl)-4-fluoro-2-[(2,3′,5′-trifluoro[1,1′-biphenyl]-3-yl)methyl]pyrrolidin-3-yl}cyclopropanesulfonamide]"
14,93,"CN(C)S(=O)(=O)N[C@@H]1[C@H](Cc2cccc(-c3ccccc3)c2F)N(C(=O)N2CCC2)CC1(F)F [Example 139, N′-{(2S,3R)-1-(azetidine-1-carbonyl)-4,4-difluoro-2-[(2-fluoro[1,1′-biphenyl]-3-yl)methyl]pyrrolidin-3-yl}-N,N-dimethylsulfuric diamine]"
15,99,"CC(C)C(=O)N1CC(F)(F)[C@H](NS(=O)(=O)C2CC2)[C@@H]1Cc1cccc(-c2ccccc2)c1F [Example 171, N-[(2S,3R)-4,4-difluoro-2-[(2-fluoro[1,1′-biphenyl]-3-yl)methyl]-1-(2-methylpropanoyl)pyrrolidin-3-yl]cyclopropanesulfonamide]"
16,108,"O=C(C1CCO1)N1C[C@H](F)[C@H](NS(=O)(=O)C2CC2)[C@@H]1Cc1cccc(-c2ccccc2F)c1F (stereo partly drawn) [Example 483, N-[(2S,3R,4S)-2-[(2,2′-difluroo[1,1′-biphenyl]-3-yl)methyl]-4-fluoro-1-(oxetane-2-carbonyl)pyrrolidin-3-yl]cyclopropanesulfonamide]"
17,94,"CCS(=O)(=O)N[C@@H]1[C@H](Cc2cccc(-c3cccc(C)c3)c2F)N(C(=O)C2CCO2)CC1(F)F (stereo partly drawn) [Example 277, N-[(2S,3R)-4,4-difluoro-2-[(2-fluoro-3′-methyl[1,1′-biphenyl]-3-yl)methyl]-1-(oxetane-2-carbonyl)pyrrolidin-3-yl]ethanesulfonamide]"
18,93,"CCS(=O)(=O)N[C@@H]1[C@H](Cc2cccc(-c3cccc(OC(F)F)c3)c2F)N(C(=O)C23CC(C2)C3)CC1(F)F [Example 551, N-[(2S,3R)-1-(bicyclo[1.1.1]pentane-1-carbonyl)-2-{[3′-(difluoromethxoy)-2-fluoro[1,1′-biphenyl]-3-yl]methyl}-4,4-difluoropyrrolidin-3-yl]ethanesulfonamide]"
19,96,"CCCC(=O)N1CC(F)(F)[C@H](NS(=O)(=O)CC)[C@@H]1Cc1cccc(-c2cccc(F)c2)c1F [Example 257, N-{(2S,3R)-1-butanoyl-2-[(2,3′-difluoro[1,1′-biphenyl]-3-yl)methyl]-4,4-difluoropyrrolidin-3-yl}ethanesulfonamide]"
20,99,"CCS(=O)(=O)N[C@H]1[C@@H](F)CN(C(=O)C2CCO2)[C@H]1Cc1cccc(-c2cc(F)cc(F)c2)c1F (stereo partly drawn) [Example 304, N-{(2S,3R,4S)-4-fluoro-1-(oxetane-2-carbonyl)-2-[(2,3′,5′-trifluoro[1,1′-biphenyl]-3-yl)methyl]pyrrolidin-3-yl}ethanesulfonamide]"
21,87,"CN(C)C(=O)N1CC(F)(F)[C@H](NS(=O)(=O)C2CC2)[C@@H]1Cc1cccc(-c2cc(F)cc(F)c2)c1F [Example 524, (2S,3R)-3-[(cyclopropanesulfonyl)amino]-4,4-difluoro-N,N-dimethyl-2-[(2,3′,5′-trifluoro[1,1′-biphenyl]-3-yl)methyl]pyrrolidine-1-carboxamide]"
22,88,"Cc1cc(F)cc(-c2cccc(C[C@H]3[C@@H](NS(=O)(=O)C4CC4)[C@@H](F)CN3C(=O)C3CCO3)c2F)c1 (stereo partly drawn) [Example 486, N-[(2S,3R,4S)-2-[(2,3′-difluoro-5′-methyl[1,1′-biphenyl]-3-yl)methyl]-4-fluoro-1-(oxetane-2-carbonyl)pyrrolidin-3-yl]cyclopropanesulfonamide]"
23,90,"CCS(=O)(=O)N[C@@H]1[C@H](Cc2cccc(-c3cccc(F)c3F)c2)N(C(=O)C2CCO2)CC1(F)F (stereo partly drawn) [Example 174, N -[(2S,3R)-2-[(2′,3′-difluoro[1,1′-biphenyl]-3-yl)methyl]-4,4-difluoro-1-(oxetane-2-carbonyl)pyrrolidin-3-yl]ethanesulfonamide]"
24,92,"O=C(C1CCO1)N1CC(F)(F)[C@H](NS(=O)(=O)C2CC2)[C@@H]1Cc1cccc(-c2cccc(F)c2)c1F (stereo partly drawn) [Example 129, N-[(2S,3R)-2-[(2,3′-difluoro[1,1′-biphenyl]-3-yl)methyl]-4,4-difluoro-1-(oxetane-2-carbonyl)pyrrolidin-3-yl]cyclopropanesulfonamide]"
25,92,"CCS(=O)(=O)N[C@@H]1[C@H](Cc2cccc(-c3cccc(C)c3)c2F)N(C(=O)N(C)C)CC1(F)F [Example 284, (2S,3R)-3-[(ethanesulfonyl)amino]-4,4-difluoro-2-[(2-fluoro-3′-methyl[1,1′-biphenyl]-3-yl)methyl]-N,N-dimethylpyrrolidine-1-carboxamide]"
